According to PMC2652713, “Molecular Blocking of CD23 Supports Its Role in the Pathogenesis of Arthritis” (PLoS ONE, 2009):
Entries after “also recorded” stand apart in the source; their conditions may differ.

Tests used:
[1] = system: adjuvant-induced arthritis in rats; assay: Adjuvant-induced arthritis (AIA) clinical score in rats; assay type: in vivo, rat, Female Lewis
Experimental: Figure 6 Inhibition of in vitro and in vivo inflammatory responses in rats by p30A peptide. (A) Rat peritoneal macrophages were activated via CD23 antigens with/without p30A, L-NIL or pCtl. Cell supernatants were collected 48 h later and nitrite levels were quantified. Values are mean±s.d. of cells from 3 different rats. (B) Cumulative clinical score/rat obtained following 50 days post-immunization in all groups. AIA rats were treated either after or before (d0) the onset of symptoms. Treatment consisted of p30A, hydrocortisone (HC, 30 mg/rat)) or pCtl (100 mg/rat). Shown are means of cumulative score/rat±s.d. from 5 (HC) or 8 rats (other conditions). (C) Evolution of arthritis severity scores of adjuvant-induced arthritis (AIA) in rats treated with intracutaneous p30A or pCtl (100 mg/rat) or hydrocortisone (after the onset of clinical signs as illustrated by arrows (means from 8 rats, s.e.m.<20%). (D) Histopathologic analysis confirm p30A ability to decrease all components of AIA lesions: pannus formation and inflammation of the synovium (P), deformity of joint and bones (asterix), bone remodeling and destruction (arrowhead), bone neoformation (arrows) and cartilage destruction.
All animal procedures were performed in strict accordance with the guidelines issued by the European Economic Community “86/609”. Female Lewis rats (Janvier, Le Genest St Isle, France) were housed under standard laboratory conditions with free access to food and water. The temperature was kept at 22±2°C and a 12 hour light/dark schedule was maintained.
Adjuvant arthritis was induced in six week-old animals by subcutaneous injection at the base of the tail of 300 µl containing 1.8 mg of inactivated Mycobacterium butyricum (Difco Laboratories, Detroit, MI) diluted in emulsion of 8 ml Vaseline, 1 ml polysorbate 80, and 1 ml PBS (Phosphate Buffer Saline, Eurobio). Rats were boosted one week later following the same procedure. Observation was conducted for up to 50 days following immunization for clinical signs of arthritis. Rats were divided in different groups of 8 rats. Groups were treated with five injections (every 2 days) of either p30A (10, 50 or 100 mg in a PBS solution), pCtl, hydrocortisone (Sigma Aldrich) or PBS solution. Injections were initiated two days after the appearance of first arthritic symptoms (therapeutic) or on the first day of immunization (preventive). Evaluation of AIA severity was performed by two independent observers who where not aware of the study protocol. The severity of AIA in each paw was quantified daily using an ordinal clinical score measurement from 0 to 4 as follows: no signs of inflammation ( = 0); swelling alone (>2 fold paw diameter) ( = 1) or swelling/immobility ( = 2) of one paw; swelling ( = 3) or swelling/immobility ( = 4) of two paws. Weight evolution of rats was measured daily. Rats were sacrificed 50 days after AIA induction. Peritoneal macrophages were collected and incubated in culture medium alone for 48 h. Quantification of TNF-α and IL-1β in rat cell supernatants was performed using appropriate ELISA kits and according to manufacturer's recommendations (Biosource, Montrouge, France).

human CD23+ macrophages = assay: IgE-mediated activation of human CD23+ macrophages; assay type: cell-based
Experimental: (§1) Monocytes or macrophages were activated through CD23 pathway: while monocytes/macrophages from RA patients express CD23, monocytes from healthy donors must be pre-activated to express surface CD23 as described. This pre-activation was obtained by incubation of healthy monocytes with recombinant human IL-4 (20 ng/ml) during 48 h at 37°C; After washing, all cell populations were tested by flow cytometry for their surface CD23 expression (>80% CD23^+) and then incubated in the presence of cross-linking CD23-MAb (clones 135 or DM2, IgG1k, 20 µg/ml) during 48–72 h, or IgE and anti-IgE as described, [17]. When indicated, peptides were added to the cells 2 h prior to their activation. Cells supernatants were then analyzed for their nitric oxide content (see below) and for the presence of cytokines: levels of TNF-α and IL-6 were determined in duplicates for each sample by a specific ELISA (R&D, Paris, France) while levels of IL-1β, IL-8 and IL-10 was determined using FlowCytomix Human Th1/Th2 Kit as recommended (Bender Medsystems, Vienna, Austria).

[2] = system: iNOS mRNA in human CD23+ monocyte-derived macrophages; assay: iNOS mRNA expression (RT-PCR) in CD23-activated human macrophages; assay type: cell-based; conditions: CD23-McAb 20 µg/ml, 1 h pre-incubation with 10 µg/ml peptide, versus HPRT mRNA
Experimental: Figure 2 Inhibition of CD23-mediated activation of iNOS pathway in human macrophages by p30A. Human CD23^+ monocyte-derived macrophages were incubated with cross-linking CD23-McAb (20 µg/ml) alone or following 1 h pre-incubation with 10 µg/ml of various peptides. […] Expression of iNOS mRNA was compared to HPRT mRNA levels. (B) Inhibition of NO generation from human activated macrophages by synthetic peptides. Cell supernatants were collected 72 h following cell cultures and levels of nitrites were determined. […] Results are expressed as mean of 3 distinct donor cell preparations (SEM<20%). (C) Inducible NOS-mediated NO generation in human macrophages is decreased following pre-incubation with p30A or L-NIL prior to CD23-mediated activation. Results are expressed as mean±s.d. of 7 distinct donor cell preparations.
Monocytes or macrophages were activated through CD23 pathway: while monocytes/macrophages from RA patients express CD23, monocytes from healthy donors must be pre-activated to express surface CD23 as described. […] Cells supernatants were then analyzed for their nitric oxide content (see below) and for the presence of cytokines: levels of TNF-α and IL-6 were determined in duplicates for each sample by a specific ELISA (R&D, Paris, France) while levels of IL-1β, IL-8 and IL-10 was determined using FlowCytomix Human Th1/Th2 Kit as recommended (Bender Medsystems, Vienna, Austria). […]

[3] = system: healthy human PBL-derived macrophages; assay: Inflammatory mediator release from healthy human PBL-derived macrophages; assay type: cell-based
Experimental: Figure 4 Inhibition of inflammatory mediator generation from healthy human PBL-derived macrophages by p30A. Decreased levels of TNF-α (A), IL-6 (B), IL-1β, IL-8 and IL-10 (C) were detected in CD23-activated cells after incubation with p30A. […] Values are mean±s.d. of cells from 5 (IL-6, TNF-α) or 2 (IL-1β, IL-8, IL-10) different donors.
as §1

[4] = FlowCytomix, mean±s.d., 2 donors

FHENWPS [p30A]
cumulative clinical score vs non-treated rats ([1]; AIA rats, 50 days post-immunization, five intracutaneous doses every two days, 8 rats, p<0,0001): significantly improved the clinical course of AIA rats
decrease of arthritic scores compared with hydrocortisone ([1]; AIA rats, hydrocortisone 30 mg/rat): more efficient than hydrocortisone in decreasing arthritic scores
arthritic signs, dose-dependence ([1]; AIA rats, p30A 10, 50 or 100 mg, five injections every 2 days): decreased arthritic signs in rats in a dose-dependent manner
effectiveness after disease onset or for prevention ([1]; AIA rats, therapeutic or p30A-d0, p<0.0002): effective either after disease onset or for the prevention
prevention of severe clinical signs ([1]; p30A administered prior to disease induction): prevented the development of severe clinical signs in rats
clinical scores and bone destruction ([1]; rat model of arthritis): ameliorates clinical scores and prevent bone destruction in a dose dependent manner
duration of dose-dependent effect ([1]; rat model of chronic arthritis, indirectly supports stability of p30A in vivo): > one month
IgE-mediated activation of human CD23+ macrophages (human CD23+ macrophages): decreased IgE-mediated activation of both human and rat CD23^+ macrophages
iNOS-encoding mRNA level [2]: reduced the levels of inducible nitric oxide synthase (iNOS)-encoding mRNA; also recorded: decreased in cells pre-incubated with p30A
IL-6 level ([3]; ELISA, mean±s.d., 5 donors): Decreased
TNF-α level ([3]; ELISA, mean±s.d., 5 donors): Decreased
IL-1β level [3, 4]: Decreased
IL-8 level [3, 4]: Decreased
IL-10 level [3, 4]: Decreased
inhibition of CD23-mediated inflammatory mediators at protein level ([3]; TNF-α, IL-6, IL-1β, IL-8 and IL-10 in supernatants): significantly inhibited all CD23-mediated activation of inflammatory mediators at protein levels
